Source: ChEMBL document CHEMBL1136014 (J Med Chem, 2002)

Key:
CHO-K1 [1] = test: Agonism of compound towards thyroid response element (TRAF beta) in CHO-K1 cells; format: functional, cell-based; settings: Cricetulus griseus
CHO-K1 [2] = test: Antagonism of compound towards thyroid response element (TRAF beta) in CHO-K1 cells; settings: Cricetulus griseus
Cavia porcellus [3] = test: Action potential duration at 50% levels of repolarization in guinea pig papillary muscles after twenty days of daily i.p. injection of 40 mg/kg (Control = 168); format: functional, Muscle tissue; settings: route intraperitoneal
Cavia porcellus [4] = test: Action potential duration at 90% levels of repolarization in guinea pig papillary muscles after twenty days of daily i.p. injection of 40 mg/kg Control = 186); format: functional, Muscle tissue; settings: route intraperitoneal
Cavia porcellus [5] = test: Action potential amplitude of compound on guinea pig papillary muscles after twenty days of daily i.p. injection of 40 mg/kg Control = 115); format: functional, Muscle tissue; settings: route intraperitoneal
Cavia porcellus [6] = test: Ratio of action potential duration (APD90/APD50) in guinea pig papillary muscles after twenty days of daily i.p. injection of 40 mg/kg Control = 1.10); format: functional, Papillary muscle; settings: route intraperitoneal
Cavia porcellus [7] = test: Effective refractory period in guinea pig papillary muscles after twenty days of daily i.p. injection of 40 mg/kg Control = 201); format: functional, Muscle tissue; settings: route intraperitoneal
Rattus norvegicus [8] = test: Effects on liver was determined from serum aspartate aminotransferase levels in female (5) rats after 2 weeks of daily oral administration of compound at 100 mg/kg (Control = 106+/-18); format: functional
Rattus norvegicus [9] = test: Effects on liver was determined from serum aspartate aminotransferase levels in female (5) rats after 2 weeks of daily oral administration of compound at 30 mg/kg (Control = 106+/-18); format: functional
Rattus norvegicus [10] = test: Effects on liver was determined from serum aspartate aminotransferase levels in female (5) rats after 2 weeks of daily oral administration of compound at 300 mg/kg (Control = 106+/-18); format: functional
Rattus norvegicus [11] = test: Effects on liver was determined from serum aspartate aminotransferase levels in male (5) rats after 2 weeks of daily oral administration of compound at 100 mg/kg (Control = 111+/-21); format: functional
Rattus norvegicus [12] = test: Effects on liver was determined from serum aspartate aminotransferase levels in male (5) rats after 2 weeks of daily oral administration of compound at 300 mg/kg (Control = 111+/-21); format: functional
Rattus norvegicus [13] = test: Effects on liver was determined from serum alanine aminotransferase levels in female (5) rats after 2 weeks of daily oral administration of compound at 30 mg/kg (Control = 23+/-5); format: functional
Rattus norvegicus [14] = test: Effects on liver was determined from serum alanine aminotransferase levels in female (5) rats after 2 weeks of daily oral administration of compound at 300 mg/kg (Control = 23+/-5); format: functional
Rattus norvegicus [15] = test: Effects on liver was determined from serum alanine aminotransferase levels in male (5) rats after 2 weeks of daily oral administration of compound at 100 mg/kg (Control = 30+/-3); format: functional
Rattus norvegicus [16] = test: Effects on liver was determined from serum alanine aminotransferase levels in male (5) rats after 2 weeks of daily oral administration of compound at 30 mg/kg (Control = 30+/-3); format: functional
Rattus norvegicus [17] = test: Effects on liver was determined from serum alanine aminotransferase levels in male (5) rats after 2 weeks of daily oral administration of compound at 300 mg/kg (Control = 30+/-3); format: functional
Rattus norvegicus [18] = test: Effects on liver was determined from serum aspartate aminotransferase levels in male (5) rats after 2 weeks of daily oral administration of compound at 30 mg/kg (Control = 111+/-21); format: functional
Rattus norvegicus [19] = test: Effects on liver was determined from serum alanine aminotransferase levels in female (5) rats after 2 weeks of daily oral administration of compound at 100 mg/kg (Control = 23+/-5); format: functional
Rattus norvegicus [20] = test: Effects on liver was determined from serum cholesterol levels in female (5) rats after 2 weeks of daily oral administration of compound at 100 mg/kg (Control = 0.73+/-0.05); format: functional
Rattus norvegicus [21] = test: Effects on liver was determined from serum cholesterol levels in female (5) rats after 2 weeks of daily oral administration of compound at 30 mg/kg (Control = 0.73+/-0.05); format: functional
Rattus norvegicus [22] = test: Effects on liver was determined from serum cholesterol levels in female (5) rats after 2 weeks of daily oral administration of compound at 300 mg/kg (Control = 0.73+/-0.05); format: functional
Rattus norvegicus [23] = test: Effects on liver was determined from serum cholesterol levels in male (5) rats after 2 weeks of daily oral administration of compound at 100 mg/kg (Control = 0.67+/-0.13); format: functional
Rattus norvegicus [24] = test: Effects on liver was determined from serum cholesterol levels in male (5) rats after 2 weeks of daily oral administration of compound at 30 mg/kg (Control = 0.67+/-0.13); format: functional
Rattus norvegicus [25] = test: Serum concentrations of T3 in rats after 2 weeks of daily oral administration of compound at 100 mg/kg (Control = 0.74+/-0.15); format: functional
Rattus norvegicus [26] = test: Serum concentrations of T3 in rats after 2 weeks of daily oral administration of compound at 30 mg/kg (Control = 0.74+/-0.15); format: functional
Rattus norvegicus [27] = test: Serum concentrations of T3 in rats after 2 weeks of daily oral administration of compound at 300 mg/kg (Control = 0.74+/-0.15); format: functional
Rattus norvegicus [28] = test: Serum concentrations of T4 in rats after 2 weeks of daily oral administration of compound at 100 mg/kg (Control = 33.1+/-5.00); format: functional
Rattus norvegicus [29] = test: Serum concentrations of T4 in rats after 2 weeks of daily oral administration of compound at 30 mg/kg (Control = 33.1+/-5.00); format: functional
Rattus norvegicus [30] = test: Serum concentrations of T4 in rats after 2 weeks of daily oral administration of compound at 300 mg/kg (Control = 33.1+/-5.00); format: functional
Rattus norvegicus [31] = test: Serum concentrations of Thyrotropin in rats after 2 weeks of daily oral administration of compound at 100 mg/kg (Control = 11.00+/-1.97); format: functional
Rattus norvegicus [32] = test: Serum concentrations of Thyrotropin in rats after 2 weeks of daily oral administration of compound at 30 mg/kg (Control = 11.00+/-1.97); format: functional
Rattus norvegicus [33] = test: Serum concentrations of Thyrotropin in rats after 2 weeks of daily oral administration of compound at 300 mg/kg (Control = 11.00+/-1.97); format: functional
Cavia porcellus [34] = test: Vmax of the action potential amplitude in guinea pig papillary muscles after twenty days of daily i.p. injection of 40 mg/kg Control = 205); format: functional; design: dose 40 mg/kg; settings: Muscle tissue
CHO-K1 [35] = test: Agonism of compound towards thyroid response element (TRAF alpha) in CHO-K1 cells; format: functional, cell-based; settings: Cricetulus griseus
Rattus norvegicus [36] = test: Effects on liver was determined from serum cholesterol levels in male (5) rats after 2 weeks of daily oral administration of compound at 300 mg/kg (Control = 0.67+/-0.13); format: functional
CHO-K1 [37] = test: Antagonism of compound towards thyroid response element (TRAF alpha) in CHO-K1 cells; settings: Cricetulus griseus
[38] = target: T1, Thyroid hormone receptor beta (Homo sapiens, UniProt P10828)
T1 sequence (P10828 whole entry): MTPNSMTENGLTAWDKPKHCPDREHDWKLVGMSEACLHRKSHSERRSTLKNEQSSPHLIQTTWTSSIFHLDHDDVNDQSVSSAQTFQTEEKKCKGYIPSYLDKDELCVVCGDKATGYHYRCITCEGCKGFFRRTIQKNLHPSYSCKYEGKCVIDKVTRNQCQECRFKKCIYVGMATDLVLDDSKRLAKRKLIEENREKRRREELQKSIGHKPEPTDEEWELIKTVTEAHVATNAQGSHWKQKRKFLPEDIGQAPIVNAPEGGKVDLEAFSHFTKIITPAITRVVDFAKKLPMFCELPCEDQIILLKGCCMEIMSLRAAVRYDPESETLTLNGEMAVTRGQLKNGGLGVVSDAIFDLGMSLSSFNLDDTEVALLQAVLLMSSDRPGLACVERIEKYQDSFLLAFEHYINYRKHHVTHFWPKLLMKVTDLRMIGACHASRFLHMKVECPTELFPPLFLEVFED
Description: Concentration required to inhibit 50% of binding of [125I]T3 to human Thyroid hormone receptor beta 1 in CHO-K1 cells

[39] = target: T2, Thyroid hormone receptor alpha (Homo sapiens, UniProt P10827)
T2 sequence (P10827 whole entry): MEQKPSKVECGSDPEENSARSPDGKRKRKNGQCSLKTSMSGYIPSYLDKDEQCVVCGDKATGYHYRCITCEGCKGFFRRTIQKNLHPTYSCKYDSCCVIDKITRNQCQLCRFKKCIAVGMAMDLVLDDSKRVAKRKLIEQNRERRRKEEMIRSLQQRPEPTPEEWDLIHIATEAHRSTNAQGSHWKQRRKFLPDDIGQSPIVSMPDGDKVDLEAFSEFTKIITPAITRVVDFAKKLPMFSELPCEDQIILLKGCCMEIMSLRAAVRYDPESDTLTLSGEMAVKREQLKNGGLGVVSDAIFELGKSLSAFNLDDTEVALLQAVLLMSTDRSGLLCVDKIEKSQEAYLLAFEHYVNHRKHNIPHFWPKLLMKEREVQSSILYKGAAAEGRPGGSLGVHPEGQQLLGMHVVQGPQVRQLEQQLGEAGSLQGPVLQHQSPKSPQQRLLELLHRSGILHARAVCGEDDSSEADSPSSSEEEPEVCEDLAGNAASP
Description: Concentration required to inhibit 50% of binding of [125I]-T3 to human Thyroid hormone receptor alpha-1 in CHO-K1 cells

[40] = target: L-type Ca2+ channel, dihydropyridine site (Rattus norvegicus, UniProt P22002+P27732+Q02485); test: Percentage inhibition of [3H]nitrendipine binding to L-type [Ca2+] channel dihydropyridine site in rat cortical membranes at 2 uM (70-80 %); format: cell membranes, Membrane; settings: probe [3H]nitrendipine
[41] = target: Sodium channel alpha subunits; brain (Types I, II, III) (Rattus norvegicus) (UniProt P04775+P04774+P08104); settings: Forebrain, Membrane, 2 uM
CHO-K1 [42] = test: Percentage agonism of compound towards thyroid response element (TRAF alpha) in CHO-K1 cells at 10 uM; Partial agonist; format: functional, Cricetulus griseus

Sodium channel alpha subunits; brain (Types I, II, III) (Rattus norvegicus), sequence (P04775 whole entry, looked up, other chains not shown): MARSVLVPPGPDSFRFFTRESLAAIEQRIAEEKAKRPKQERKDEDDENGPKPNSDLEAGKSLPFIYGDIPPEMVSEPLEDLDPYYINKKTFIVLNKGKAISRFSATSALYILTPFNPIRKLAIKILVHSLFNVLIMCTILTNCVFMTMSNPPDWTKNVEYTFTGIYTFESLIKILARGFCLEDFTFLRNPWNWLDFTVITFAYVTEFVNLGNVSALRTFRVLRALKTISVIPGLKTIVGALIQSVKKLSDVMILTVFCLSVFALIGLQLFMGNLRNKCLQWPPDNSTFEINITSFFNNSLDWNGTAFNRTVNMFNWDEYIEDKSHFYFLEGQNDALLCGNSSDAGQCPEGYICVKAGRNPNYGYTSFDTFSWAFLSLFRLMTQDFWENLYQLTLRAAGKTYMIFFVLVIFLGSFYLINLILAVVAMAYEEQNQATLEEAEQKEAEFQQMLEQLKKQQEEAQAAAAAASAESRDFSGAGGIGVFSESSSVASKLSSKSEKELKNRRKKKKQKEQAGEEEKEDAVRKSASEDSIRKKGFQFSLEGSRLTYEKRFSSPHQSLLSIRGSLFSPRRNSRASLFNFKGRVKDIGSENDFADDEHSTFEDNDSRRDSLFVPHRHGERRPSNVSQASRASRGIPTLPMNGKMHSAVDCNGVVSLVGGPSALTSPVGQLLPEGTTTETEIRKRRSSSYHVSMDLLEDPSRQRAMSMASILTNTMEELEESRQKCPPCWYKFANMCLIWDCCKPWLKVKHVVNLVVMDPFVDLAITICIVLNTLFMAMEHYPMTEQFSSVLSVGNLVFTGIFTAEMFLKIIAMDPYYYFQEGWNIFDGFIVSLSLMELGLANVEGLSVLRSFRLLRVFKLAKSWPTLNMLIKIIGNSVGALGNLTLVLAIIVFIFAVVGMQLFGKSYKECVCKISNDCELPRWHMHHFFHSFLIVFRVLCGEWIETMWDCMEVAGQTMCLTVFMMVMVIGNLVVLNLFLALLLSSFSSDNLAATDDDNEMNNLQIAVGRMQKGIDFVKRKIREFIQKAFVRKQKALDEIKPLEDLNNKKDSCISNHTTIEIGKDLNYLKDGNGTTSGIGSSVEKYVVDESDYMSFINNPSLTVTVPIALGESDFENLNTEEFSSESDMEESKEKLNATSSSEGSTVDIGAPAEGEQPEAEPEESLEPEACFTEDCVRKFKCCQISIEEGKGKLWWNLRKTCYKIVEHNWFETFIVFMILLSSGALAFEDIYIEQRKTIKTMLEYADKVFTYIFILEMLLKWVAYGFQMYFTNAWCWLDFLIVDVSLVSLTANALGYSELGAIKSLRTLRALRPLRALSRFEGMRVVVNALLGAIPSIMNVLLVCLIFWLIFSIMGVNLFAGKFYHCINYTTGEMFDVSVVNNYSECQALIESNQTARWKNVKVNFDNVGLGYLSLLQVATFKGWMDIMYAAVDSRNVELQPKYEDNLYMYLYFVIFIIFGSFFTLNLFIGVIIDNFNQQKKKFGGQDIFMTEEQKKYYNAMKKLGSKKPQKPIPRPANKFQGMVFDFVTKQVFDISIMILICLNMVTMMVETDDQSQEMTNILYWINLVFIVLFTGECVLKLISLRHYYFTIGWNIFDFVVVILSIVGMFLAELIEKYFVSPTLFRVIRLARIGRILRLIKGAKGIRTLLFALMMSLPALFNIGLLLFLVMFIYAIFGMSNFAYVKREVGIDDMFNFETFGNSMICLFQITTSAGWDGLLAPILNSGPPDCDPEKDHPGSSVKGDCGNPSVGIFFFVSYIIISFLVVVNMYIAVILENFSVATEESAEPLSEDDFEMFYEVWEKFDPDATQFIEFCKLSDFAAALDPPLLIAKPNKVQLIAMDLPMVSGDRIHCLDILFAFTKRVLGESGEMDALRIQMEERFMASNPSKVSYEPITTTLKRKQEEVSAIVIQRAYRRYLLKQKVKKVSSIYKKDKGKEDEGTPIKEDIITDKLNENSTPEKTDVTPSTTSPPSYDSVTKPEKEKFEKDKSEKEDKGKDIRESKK
Sodium channel alpha subunits; brain (Types I, II, III) (Rattus norvegicus), sequence (P08104 whole entry, looked up, other chains not shown): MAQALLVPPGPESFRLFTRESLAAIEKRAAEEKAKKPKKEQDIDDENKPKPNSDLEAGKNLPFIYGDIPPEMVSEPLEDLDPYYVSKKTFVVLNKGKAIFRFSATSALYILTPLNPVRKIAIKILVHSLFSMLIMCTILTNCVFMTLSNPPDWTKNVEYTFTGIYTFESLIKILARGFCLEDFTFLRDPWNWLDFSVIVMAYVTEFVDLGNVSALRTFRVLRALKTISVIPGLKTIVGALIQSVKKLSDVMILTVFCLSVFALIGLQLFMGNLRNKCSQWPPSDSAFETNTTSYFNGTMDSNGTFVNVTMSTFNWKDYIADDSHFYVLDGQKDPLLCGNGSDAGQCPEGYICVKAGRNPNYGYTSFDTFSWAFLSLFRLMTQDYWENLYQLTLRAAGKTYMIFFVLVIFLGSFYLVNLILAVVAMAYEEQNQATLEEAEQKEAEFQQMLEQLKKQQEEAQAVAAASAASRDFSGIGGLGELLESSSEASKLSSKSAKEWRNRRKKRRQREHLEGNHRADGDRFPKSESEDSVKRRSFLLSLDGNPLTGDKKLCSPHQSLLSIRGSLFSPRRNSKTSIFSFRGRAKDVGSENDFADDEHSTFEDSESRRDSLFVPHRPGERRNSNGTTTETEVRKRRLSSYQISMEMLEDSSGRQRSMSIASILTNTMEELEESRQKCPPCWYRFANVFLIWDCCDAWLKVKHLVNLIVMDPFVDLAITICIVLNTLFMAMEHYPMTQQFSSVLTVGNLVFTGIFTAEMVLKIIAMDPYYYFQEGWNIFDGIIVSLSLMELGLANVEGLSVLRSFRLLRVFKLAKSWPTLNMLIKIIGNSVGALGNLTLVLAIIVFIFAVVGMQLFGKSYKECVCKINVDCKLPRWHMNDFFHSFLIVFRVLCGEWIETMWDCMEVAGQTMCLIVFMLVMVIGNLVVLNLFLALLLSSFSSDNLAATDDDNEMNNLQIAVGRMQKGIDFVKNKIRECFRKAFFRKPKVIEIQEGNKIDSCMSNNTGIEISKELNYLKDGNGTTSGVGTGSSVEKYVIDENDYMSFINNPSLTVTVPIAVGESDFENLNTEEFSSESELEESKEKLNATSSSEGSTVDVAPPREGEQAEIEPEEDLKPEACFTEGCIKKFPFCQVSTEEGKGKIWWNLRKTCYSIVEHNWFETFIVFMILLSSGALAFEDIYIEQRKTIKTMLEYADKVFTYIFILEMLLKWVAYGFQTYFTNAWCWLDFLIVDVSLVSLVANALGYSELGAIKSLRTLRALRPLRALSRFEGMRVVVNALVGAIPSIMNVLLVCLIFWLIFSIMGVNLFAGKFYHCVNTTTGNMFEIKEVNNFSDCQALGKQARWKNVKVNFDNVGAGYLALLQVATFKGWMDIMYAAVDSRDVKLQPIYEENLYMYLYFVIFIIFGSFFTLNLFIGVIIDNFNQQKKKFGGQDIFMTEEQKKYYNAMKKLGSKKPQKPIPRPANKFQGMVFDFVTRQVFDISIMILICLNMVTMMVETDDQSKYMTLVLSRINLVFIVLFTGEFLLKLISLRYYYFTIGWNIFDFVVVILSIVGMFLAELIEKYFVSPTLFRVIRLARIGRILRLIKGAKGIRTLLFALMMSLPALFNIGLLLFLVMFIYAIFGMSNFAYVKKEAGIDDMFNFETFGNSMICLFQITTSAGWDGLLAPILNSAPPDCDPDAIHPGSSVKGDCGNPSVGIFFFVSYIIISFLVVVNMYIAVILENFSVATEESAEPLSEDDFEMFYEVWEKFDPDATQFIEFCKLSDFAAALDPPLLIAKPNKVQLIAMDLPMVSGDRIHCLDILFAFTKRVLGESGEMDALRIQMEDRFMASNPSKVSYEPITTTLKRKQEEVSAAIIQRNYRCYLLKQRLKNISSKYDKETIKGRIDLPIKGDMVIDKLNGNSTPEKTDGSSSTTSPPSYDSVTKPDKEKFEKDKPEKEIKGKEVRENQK

IC50 [39] [µM] | SMILES | EC50 (CHO-K1 [1]) [µM] | IC50 (CHO-K1 [2]) [µM] | ASAT levels (Rattus norvegicus [8]) [IU/l] | ASAT levels (Rattus norvegicus [9]) [IU/l] | ASAT levels (Rattus norvegicus [10]) [IU/l] | ASAT levels (Rattus norvegicus [11]) [IU/l] | ASAT levels (Rattus norvegicus [12]) [IU/l] | ALAT levels (Rattus norvegicus [13]) [IU/l] | ALAT levels (Rattus norvegicus [14]) [IU/l] | ALAT levels (Rattus norvegicus [15]) [IU/l] | ALAT levels (Rattus norvegicus [16]) [IU/l] | ALAT levels (Rattus norvegicus [17]) [IU/l] | ASAT levels (Rattus norvegicus [18]) [IU/l] | ALAT levels (Rattus norvegicus [19]) [IU/l] | Cholestrol levels (Rattus norvegicus [20]) [g/L] | Cholestrol levels (Rattus norvegicus [21]) [g/L] | Cholestrol levels (Rattus norvegicus [22]) [g/L] | EC50 (CHO-K1 [35]) [µM] | IC50 (CHO-K1 [37]) [µM] | further results
4.5 | Cc1oc2ccccc2c1Cc1cc(I)c(OCC(=O)O)c(I)c1 | > 10 | 4.1 | 114 | 101 | 115 | 111 | 102 | 21 | 54 | 43 | 30 | 67 | 104 | 40 | 0.69 | 0.68 | 0.93 | > 10 | 2.2 | APD50 (Cavia porcellus [3]): 182 ms; APD90 (Cavia porcellus [4]): 219 ms; APA (Cavia porcellus [5]): 116 mV; Ratio (Cavia porcellus [6]): 1.22; ERP (Cavia porcellus [7]): 223 ms; Cholestrol levels (Rattus norvegicus [23]): 0.78 g/L; Cholestrol levels (Rattus norvegicus [24]): 0.63 g/L; Thyroid status (Rattus norvegicus [25]): 0.51 nM l-1; Thyroid status (Rattus norvegicus [26]): 0.52 nM l-1; Thyroid status (Rattus norvegicus [27]): 0.52 nM l-1; Thyroid status (Rattus norvegicus [28]): 37.1 nM l-1; Thyroid status (Rattus norvegicus [29]): 35.1 nM l-1; Thyroid status (Rattus norvegicus [30]): 46.6 nM l-1; Thyroid status (Rattus norvegicus [31]): 16.6 ng/mL; Thyroid status (Rattus norvegicus [32]): 14.2 ng/mL; Thyroid status (Rattus norvegicus [33]): 16.6 ng/mL; Vmax (Cavia porcellus [34]): 192 V s-1; Cholestrol levels (Rattus norvegicus [36]): 0.91 g/L; IC50 [38]: 5.1 µM
 | CCCCc1oc2ccccc2c1C(=O)c1cc(I)c(OCCN(CC)CC)c(I)c1 [AMIODARONE] |  |  | 133 | 109 | 2052 | 131 | 550 | 23 | 284 | 62 | 35 | 103 | 110 | 62 | 1.18 | 0.89 | 1.12 |  |  | inhibition at 2 µM [40]: 80%; Cholestrol levels (Rattus norvegicus [23]): 1.26 g/L; Cholestrol levels (Rattus norvegicus [24]): 0.77 g/L; Thyroid status (Rattus norvegicus [25]): 0.66 nM l-1; Thyroid status (Rattus norvegicus [26]): 0.66 nM l-1; Thyroid status (Rattus norvegicus [27]): 0.28 nM l-1; Thyroid status (Rattus norvegicus [28]): 43.2 nM l-1; Thyroid status (Rattus norvegicus [29]): 43.9 nM l-1; Thyroid status (Rattus norvegicus [30]): 22.3 nM l-1; Thyroid status (Rattus norvegicus [31]): 16.1 ng/mL; Thyroid status (Rattus norvegicus [32]): 13.9 ng/mL; Thyroid status (Rattus norvegicus [33]): 11.2 ng/mL; Cholestrol levels (Rattus norvegicus [36]): 1.39 g/L; inhibition [41]: 70%
0.82 | Cc1oc2ccccc2c1C(=O)c1cc(I)c(OCC(=O)O)c(I)c1 | 1.7 | > 10 |  |  |  |  |  |  |  |  |  |  |  |  |  |  |  | 0.45 | > 10 | Effect (CHO-K1 [42]): 56%; IC50 [38]: 0.48 µM
1.4 | CCCCc1oc2ccccc2c1C(=O)c1cc(I)c(OCC(=O)O)c(I)c1 | > 10 | > 10 |  |  |  |  |  |  |  |  |  |  |  |  |  |  |  | > 10 | > 10 | 
